Results taken from US8076352B2, “Administration of carboline derivatives useful in the treatment of cancer and other diseases” (PTC Therapeutics, Inc., priority 2004, dated 2011).

The compounds below were run on hypoxia-inducible endogenous VEGF expression in HeLa cells (assay: Hypoxia-inducible endogenous VEGF expression, VEGF ELISA of conditioned media (dose-response EC50)). Details: HeLa cells, hypoxic conditions (1% O2, 5% CO2).
Type: cell-based
Procedure, shortened: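 Secreted VEGF was quantified by ELISA against a per-assay standard curve after HeLa cells spent 24-48 h in 1% O2, 5% CO2, N2 balance with or without compound. Across a series of, e.g., seven concentrations, percentage inhibition (max 100%, min 0%) gave EC50 and CC50 values.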

EC50 [nM] | SMILES
< 8 | O=C(Oc1ccc(F)cc1)N1CCc2c([nH]c3ccc(Cl)cc23)C1c1ccc(OCCCn2ccnc2)cc1 (stereo not shown) [Compound 994]

Same assay, conditions: Homo sapiens, HeLa cells under hypoxic conditions

SMILES | EC50 [nM]
CCOC(=O)N1CCc2c([nH]c3ccc(Cl)cc23)C1c1ccccc1F (stereo not shown) [Compound 106] | 8 to 40
COc1ccc2[nH]c3c(c2c1)CCNC3c1cccnc1 (stereo not shown) [Compound 324] | > 1000
CC(C)c1ccc(C2c3[nH]c4ccc(Cl)cc4c3CCN2C(=O)OCCCl)cc1 (stereo not shown) [Compound 18] | < 8
Clc1ccc2[nH]c3c(c2c1)CCNC3c1ccccc1 (stereo not shown) [Compound 216] | 200 to 1000
O=c1c(C2NCCc3c2[nH]c2ccc(Cl)cc32)coc2ccccc12 (stereo not shown) [Compound 234] | > 1000
CCCOC(=O)N1CCc2c([nH]c3ccc(Cl)cc23)C1c1ccc(C)cc1 (stereo not shown) [Compound 42] | < 8
Clc1ccc2[nH]c3c(c2c1)CCN(Cc1ccoc1)C3c1ccco1 (stereo not shown) [Compound 268] | > 1000
Cc1ccc(C2NCCc3c2[nH]c2ccc(Cl)cc32)cc1 (stereo not shown) [Compound 193] | 200 to 1000
CCOC(=O)N1CCc2c([nH]c3ccc(Cl)cc23)C1c1cc(F)ccc1F (stereo not shown) [Compound 82] | 8 to 40
COC(=O)N1CCc2c([nH]c3ccc(Cl)cc23)C1c1ccccc1 (stereo not shown) [Compound 96] | 8 to 40
COc1ccc(C2NC(C(=O)O)Cc3c2[nH]c2ccc(Br)cc32)cc1 (stereo not shown) [Compound 300] | > 1000
CCOC(=O)N1CCc2c([nH]c3ccc(Cl)cc23)C1c1ccccc1Cl (stereo not shown) [Compound 183] | 200 to 1000
CCOC(=O)N1CCc2c([nH]c3ccc(Cl)cc23)C1c1ccc(F)cc1F (stereo not shown) [Compound 21] | < 8
COc1ccc(C2c3[nH]c4ccccc4c3CCN2C(=O)Nc2ccc(C(C)C)cc2)cc1 (stereo not shown) [Compound 304] | > 1000
Cc1cccc2c3c([nH]c12)C(c1cccc(Br)c1)NCC3 (stereo not shown) [Compound 305] | > 1000
COc1ccc(C2c3[nH]c4ccc(Cl)cc4c3CCN2C(=O)N2CCOCC2)cc1 (stereo not shown) [Compound 334] | > 1000
CCCOC(=O)N1CCc2c([nH]c3ccc(Cl)cc23)C1c1cccc(Cl)c1 (stereo not shown) [Compound 72] | 8 to 40
O=C(OCCCl)N1CCc2c([nH]c3ccc(Cl)cc23)C1c1cccc(F)c1 (stereo not shown) [Compound 116] | 8 to 40
CC(C)OC(=O)N1CCc2c([nH]c3ccc(Cl)cc23)C1c1cccc(C(F)(F)F)c1 (stereo not shown) [Compound 85] | 8 to 40
Clc1ccc2[nH]c3c(c2c1)CNCC3c1ccccc1 (stereo not shown) [Compound 248] | > 1000

SMILES | EC50 [nM]
CCOC(=O)N1CCc2c([nH]c3ccc(Br)cc23)C1c1cccc(Cl)c1Cl (stereo not shown) [Compound 148] | 40 to 200
Clc1ccc2[nH]c3c(c2c1)CCN(c1ncccn1)C3c1ccc2c(c1)OCO2 (stereo not shown) [Compound 328] | > 1000
CC(C)(C)OC(=O)N1CCc2c([nH]c3ccc(Cl)cc23)C1c1ccc2c(c1)OCO2 (stereo not shown) [Compound 362] | < 8
Clc1ccc(C2NCCc3c2[nH]c2ccc(Cl)cc32)c(Cl)c1 (stereo not shown) [Compound 124] | 40 to 200
COc1cccc(C2NCCc3c2[nH]c2ccc(Cl)cc32)c1 (stereo not shown) [Compound 210] | 200 to 1000
Clc1ccc2[nH]c3c(c2c1)CCNC3c1ccc2c(c1)OCO2 (stereo not shown) [Compound 227] | 200 to 1000
Cc1ccc(C2c3[nH]c4ccc(Cl)cc4c3CCN2C(=O)OCCCl)cc1 (stereo not shown) [Compound 48] | 8 to 40
COC(=O)N1CCc2c([nH]c3ccc(Cl)cc23)C1c1cccc(Cl)c1 (stereo not shown) [Compound 104] | 8 to 40
CCC(=O)N1CCc2c([nH]c3ccc(Cl)cc23)C1c1ccc(OC)cc1 (stereo not shown) [Compound 143] | 40 to 200
Clc1ccc2[nH]c3c(c2c1)CCN(c1ncccn1)C3c1ccc(OCCN2CCOCC2)cc1 (stereo not shown) [Compound 356] | 200 to 1000
CC(C)OC(=O)N1CCc2c([nH]c3ccc(Cl)cc23)C1c1ccccc1F (stereo not shown) [Compound 105] | 8 to 40
O=C(Oc1ccccc1)N1CCc2c([nH]c3ccc(Br)cc23)C1c1ccccc1 (stereo not shown) [Compound 76] | 8 to 40
Oc1ccc(Br)cc1C1NCCc2c1[nH]c1ccc(Br)cc21 (stereo not shown) [Compound 382] | > 1000
CCC1NCCc2c1[nH]c1ccc(Cl)cc21 (stereo not shown) [Compound 298] | > 1000
Fc1ccc(C2NCCc3c2[nH]c2ccc(Br)cc32)cc1F (stereo not shown) [Compound 201] | 200 to 1000
Clc1ccc2[nH]c3c(c2c1)CCNC3c1cccc(Cl)c1Cl (stereo not shown) [Compound 168] | 40 to 200
CC(C)OC(=O)N1CCc2c([nH]c3ccc(Cl)cc23)C1c1cccc(Br)c1 (stereo not shown) [Compound 95] | 8 to 40
Clc1ccc2[nH]c3c(c2c1)CCNC3c1cccs1 (stereo not shown) [Compound 310] | > 1000
CCCOC(=O)N1CCc2c([nH]c3ccc(Cl)cc23)C1c1ccc(C#N)cc1 (stereo not shown) [Compound 71] | 8 to 40

More lines, now with the values ahead:

EC50 [nM] | SMILES
< 8 | CCCOC(=O)N1CCc2c([nH]c3ccc(Cl)cc23)C1c1ccc(OCCOC)cc1 (stereo not shown) [Compound 392]
200 to 1000 | COc1ccc(C2c3[nH]c4ccc(Cl)cc4c3CCN2C(=O)C(C)Oc2ccccc2)cc1 (stereo not shown) [Compound 375]
8 to 40 | O=C(Oc1ccc(Cl)cc1)N1CCc2c([nH]c3ccc(Cl)cc23)C1c1ccc(Cl)cc1 (stereo not shown) [Compound 351]
40 to 200 | CCOC(=O)Oc1ccc(C2c3[nH]c4ccc(Cl)cc4c3CCN2C(=O)OCC)cc1 (stereo not shown) [Compound 136]
8 to 40 | Cc1ccc2[nH]c3c(c2c1)CCN(C(=O)Oc1ccc(Cl)cc1)C3c1ccc(C(C)C)cc1 (stereo not shown) [Compound 344]
8 to 40 | O=C(OCCCl)N1CCc2c([nH]c3ccc(Cl)cc23)C1c1ccc(Cl)cc1 (stereo not shown) [Compound 55]
8 to 40 | COc1ccc(C2c3[nH]c4ccc(Cl)cc4c3CCN2C(=O)CCCl)cc1 (stereo not shown) [Compound 367]

Same assay, conditions: Homo sapiens, HeLa cells, hypoxic conditions (1% O2)

SMILES | EC50 [nM]
CCOC(=O)N1CCc2c([nH]c3ccc(Cl)cc23)C1c1ccc(C(=O)N2CCN(CCOC)CC2)cc1 (stereo not shown) [Compound 469] | 8 to 40
O=C(Oc1ccc(F)cc1)N1CCc2c([nH]c3ccc(Cl)cc23)C1c1ccc(OCCCCN2CCOCC2)cc1 (stereo not shown) [Compound 738] | < 8
O=C(Oc1ccc(F)cc1)N1CCc2c([nH]c3ccc(Cl)cc23)C1c1ccc(OCCCCNCCCn2ccnc2)cc1 (stereo not shown) [Compound 741] | 40 to 200
CCOC(=O)N1CCc2c([nH]c3ccc(Cl)cc23)C1c1ccc(OCCOCCOC)cc1 (stereo not shown) [Compound 404] | < 8
CCOC(=O)N1CCc2c([nH]c3ccc(Cl)cc23)C1C1CC=CCC1 (stereo not shown) [Compound 504] | 40 to 200
COCCCNCCCCOc1ccc(C2c3[nH]c4ccc(Cl)cc4c3CCN2C(=O)Oc2ccc(F)cc2)cc1 (stereo not shown) [Compound 737] | 8 to 40
CCOC(=O)N1CCc2c([nH]c3ccc(Cl)cc23)C1c1cccc(C(=O)NCCOC)c1 (stereo not shown) [Compound 556] | 200 to 1000
CC(C)C1NCCc2c1[nH]c1ccc(Cl)cc21 (stereo not shown) [Compound 477] | 40 to 200
COC(=O)C(=O)N1CCc2c([nH]c3ccc(Cl)cc23)C1c1ccc(OC)cc1 (stereo not shown) [Compound 485] | 40 to 200
CCOC(=O)N1CCc2c([nH]c3ccc(Cl)cc23)C1c1cccc(C(=O)NC)c1 (stereo not shown) [Compound 524] | 200 to 1000
CCOC(=O)N1CCC(NC(=O)c2ccc(C3c4[nH]c5ccc(Cl)cc5c4CCN3C(=O)OCC)cc2)CC1 (stereo not shown) [Compound 453] | 8 to 40
O=C(Oc1ccc(Cl)cc1)N1CCc2c([nH]c3ccc(Cl)cc23)C1c1ccc(OCCCCN2CCCC2)cc1 (stereo not shown) [Compound 698] | 8 to 40

Continued, values first:

EC50 [nM] | SMILES
< 8 | C=CCOc1ccc(C2c3[nH]c4ccc(Cl)cc4c3CCN2C(=O)Oc2ccccc2)cc1 (stereo not shown) [Compound 413]
40 to 200 | O=C(Oc1ccccc1Cl)N1CCc2c([nH]c3ccc(Cl)cc23)C1c1ccc(OCC(O)CO)cc1 (stereo not shown) [Compound 628]
200 to 1000 | CCC(Br)C(=O)N1CCc2c([nH]c3ccc(Cl)cc23)C1c1ccc(OC)cc1 (stereo not shown) [Compound 559]
8 to 40 | O=C(Oc1ccccc1)N1CCc2c([nH]c3ccc(Cl)cc23)C1c1ccc(OCC(O)CO)cc1 (stereo not shown) [Compound 626]
< 8 | O=C(Oc1ccc(F)cc1)N1CCc2c([nH]c3ccc(Cl)cc23)C1c1ccc(OCCCCn2ccnc2)cc1 (stereo not shown) [Compound 742]
< 8 | O=C(Oc1ccc(Cl)cc1)N1CCc2c([nH]c3ccc(Cl)cc23)C1c1ccc(OCC(O)CO)cc1 (stereo not shown) [Compound 629]
8 to 40 | CCOC(=O)N1CCc2c([nH]c3ccc(Cl)cc23)C1c1ccc(OCCCN(C)C)cc1 (stereo not shown) [Compound 458]
< 8 | COCCOc1ccc(C2c3[nH]c4ccc(Cl)cc4c3CCN2C(=O)Oc2ccc(Cl)cc2)cc1 (stereo not shown) [Compound 418]
8 to 40 | O=C(Oc1ccc(Cl)cc1)N1CCc2c([nH]c3ccc(Cl)cc23)C1c1ccc(F)cc1 (stereo not shown) [Compound 444]
< 8 | O=C(Oc1ccc(F)cc1)N1CCc2c([nH]c3ccc(Br)cc23)C1c1ccc(C(F)(F)F)cc1 (stereo not shown) [Compound 397]
< 8 | C=CCOc1ccc(C2c3[nH]c4ccc(Cl)cc4c3CCN2C(=O)Oc2ccc(Cl)cc2)cc1 (stereo not shown) [Compound 400]
200 to 1000 | COc1ccc(C2c3[nH]c4ccc(OC)cc4c3CCN2C(=O)Oc2ccc(Cl)cc2)cc1 (stereo not shown) [Compound 614]
8 to 40 | O=C(Oc1ccc(F)cc1)N1CCc2c([nH]c3ccc(Cl)cc23)C1c1ccc(F)cc1 (stereo not shown) [Compound 452]

Same assay, conditions: Homo sapiens, HeLa cells, hypoxic conditions (1% O2, 5% CO2)

SMILES | EC50 [nM]
COc1ccc(OC(=O)N2CCc3c([nH]c4ccc(Cl)cc34)C2c2ccc(OCC3CCCN(C)C3)cc2)cc1 (stereo not shown) [Compound 981] | 40 to 200
O=C(Oc1ccccc1Cl)N1CCc2c([nH]c3ccc(Cl)cc23)C1c1ccc(OCCCn2ccnc2)cc1 (stereo not shown) [Compound 934] | < 8
O=C(Oc1ccc(Cl)cc1)N1CCc2c([nH]c3ccc(Cl)cc23)C1c1ccc(OCCCN2CCN(CCO)CC2)cc1 (stereo not shown) [Compound 942] | 8 to 40
O=C(Oc1ccc(Cl)cc1)N1CCc2c([nH]c3ccc(Cl)cc23)C1c1ccc(OCCCN2CCSCC2)cc1 (stereo not shown) [Compound 933] | < 8
O=C(Oc1ccc(F)cc1)N1CCc2c([nH]c3ccc(Cl)cc23)C1c1ccc(OCCn2cncn2)cc1 (stereo not shown) [Compound 834] | 8 to 40
CN1CCCC(COc2ccc(C3c4[nH]c5ccc(Cl)cc5c4CCN3C(=O)Oc3ccc(Cl)cc3)cc2)C1 (stereo not shown) [Compound 966] | 8 to 40
Cc1ccc(OC(=O)N2CCc3c([nH]c4ccc(Cl)cc34)C2c2ccc(OCCCn3cncn3)cc2)cc1 (stereo not shown) [Compound 882] | < 8
